Experimental data as given in ChEMBL document CHEMBL4311969, “Polygala tenuifolia-Acori tatarinowii herbal pair as an inspiration for substituted cinnamic α-asaronol esters: Design, synthesis, anticonvulsant activity, and inhibition of lactate dehydrogenase study” (Eur J Med Chem, 2019).
“And” between values parts separate entries of the source, which are not always exact repeats. Equal entries are not always repeated. The source made the active and inactive calls. No cut-off for these calls is given here.

How the values were obtained:
Mus musculus [1] = assay: Anticonvulsant activity in Kunming mouse assessed as reduction in ScPTZ-induced seizure at 300 mg/kg, ip administered 0.25 to 2 hrs before ScPTZ stimulation relative to control; assay type: functional; design: scale not given: the % may be the effect or the level left
[2] = Neurotoxicity against ip dosed Kunming mouse assessed as time remained in rod measured at 0.5 hrs by rotarod test; assay type: toxicity, organism-based; conditions: in vivo
Mus musculus [3] = assay: Anticonvulsant activity in Kunming mouse assessed as MES-induced hind limb extension at 100 mg/kg, ip administered 0. 5 to 4 hrs before MES stimulation relative to control; assay type: functional
Mus musculus [4] = assay: Anticonvulsant activity in ip dosed Kunming mouse assessed as MES-induced hind limb extension administered 0.5 hrs before MES stimulation; assay type: functional
Mus musculus [5] = assay: Anticonvulsant activity in Kunming mouse assessed as reduction in Sc3-MP-induced seizure ip dosed measured at 0.5 hrs before Sc3-MP stimulation; assay type: functional
Mus musculus [6] = assay: Anticonvulsant activity in Kunming mouse assessed as MES-induced hind limb extension at 100 mg/kg, ip administered 3 hrs before MES stimulation; assay type: functional, organism-based
Mus musculus [7] = assay: […] activity in ip dosed Kunming mouse assessed as reduction in formalin-induced paw licking administered 0.5 hrs before formalin stimulation; assay type: functional
Mus musculus [8] = assay: Anticonvulsant activity in Kunming mouse assessed as reduction in ScPTZ-induced seizure at 100 mg/kg, ip administered 0.5 hrs before ScPTZ stimulation relative to control; assay type: functional; design: scale not given: the % may be the effect or the level left
Homo sapiens [9] = species on record: Homo sapiens; assay: Inhibition of human LDH5 at 0.5 mM using sodium pyruvate as substrate measured for 60 sec for every 5 mins by LC/MS-MS analysis
Mus musculus [10] = assay: Anticonvulsant activity in Kunming mouse assessed as MES-induced hind limb extension at 50 mg/kg, ip administered 0.5 to 4 hrs before MES stimulation relative to control; assay type: functional
Mus musculus [11] = assay: Anticonvulsant activity in Kunming mouse assessed as reduction in Sc3-MP-induced tonic seizure rate at 300 mg/kg, ip administered 0.5 hrs before Sc3-MP stimulation relative to control; assay type: functional; design: scale not given: the % may be the effect or the level left
Mus musculus [12] = assay: Anticonvulsant activity in Kunming mouse assessed as reduction in Sc3-MP-induced mortality rate at 300 mg/kg, ip administered 0.5 hrs before Sc3-MP stimulation relative to control; assay type: functional; design: scale not given: the % may be the effect or the level left
[13] = Protective index, ratio of TD50 for neurotoxicity against ip dosed Kunming mouse assessed as time remained in rod measured at 0.5 hrs by rotarod test to ED50 for anticonvulsant activity in ip dosed Kunming mouse assessed as MES-induced hind limb extension administered 0.5 hrs; assay type: toxicity, organism-based; conditions: in vivo, read-out: PI
Mus musculus [14] = assay: Anticonvulsant activity in ip dosed Kunming mouse assessed as reduction in ScPTZ-induced seizure administered 0.5 hrs before ScPTZ stimulation; assay type: functional
Mus musculus [15] = assay: Anticonvulsant activity in Kunming mouse assessed as reduction in ScPTZ-induced seizure at 100 mg/kg, ip administered 0.25 to 2 hrs before ScPTZ stimulation relative to control; assay type: functional
[16] = Neurotoxicity against Kunming mouse assessed as time remained in rod at 100 mg/kg, ip administered 0.5 to 2 hrs by rotarod test; assay type: toxicity, organism-based; conditions: in vivo
Mus musculus [17] = assay: Anticonvulsant activity in Kunming mouse assessed as reduction in ScPTZ-induced clonic seizure at 300 mg/kg, ip administered 0.5 hrs before ScPTZ stimulation relative to control; assay type: functional; design: scale not given: the % may be the effect or the level left
Mus musculus [18] = assay: Anticonvulsant activity in Kunming mouse assessed as reduction in ScPTZ-induced tonic seizure rate at 300 mg/kg, ip administered 0.5 hrs before ScPTZ stimulation relative to control; assay type: functional; design: scale not given: the % may be the effect or the level left
[19] = Protective index, ratio of TD50 for neurotoxicity against ip dosed Kunming mouse assessed as time remained in rod measured at 0.5 hrs by rotarod test to ED50 for anticonvulsant activity in ip dosed Kunming mouse assessed as reduction in ScPTZ-induced seizure administered 0.5 hrs before ScPTZ stimulation; assay type: toxicity, organism-based; conditions: in vivo, read-out: PI
Mus musculus [20] = assay: Anticonvulsant activity in Kunming mouse assessed as reduction in Sc3-MP-induced clonic seizure rate at 300 mg/kg, ip administered 0.5 hrs before Sc3-MP stimulation relative to control; assay type: functional; design: scale not given: the % may be the effect or the level left
[21] = Protective index, ratio of TD50 for neurotoxicity against ip dosed Kunming mouse assessed as time remained in rod measured at 0.5 hrs by rotarod test to ED50 for anticonvulsant activity in ip dosed Kunming mouse assessed as reduction in Sc3-MP-induced seizure administered 0.5 hrs before Sc3-MP stimulation; assay type: toxicity, organism-based; conditions: in vivo, read-out: PI
Mus musculus [22] = assay: Anticonvulsant activity in Kunming mouse assessed as reduction in ScPTZ-induced tonic seizure rate at 100 mg/kg, ip administered 0.5 hrs before ScPTZ stimulation relative to control; assay type: functional; design: scale not given: the % may be the effect or the level left
Mus musculus [23] = assay: Anticonvulsant activity in Kunming mouse assessed as reduction in ScPTZ-induced clonic seizure at 100 mg/kg, ip administered 0.5 hrs before ScPTZ stimulation relative to control; assay type: functional; design: scale not given: the % may be the effect or the level left
Homo sapiens [24] = species on record: Homo sapiens; assay: Inhibition of human LDH1 at 0.5 mM using sodium pyruvate as substrate measured for 60 sec for every 5 mins by LC/MS-MS analysis
Mus musculus [25] = assay: Anticonvulsant activity in Kunming mouse assessed as MES-induced hind limb extension at 100 mg/kg, ip administered 0. 5 to 2 hrs before MES stimulation; assay type: functional, organism-based
[26] = Protective index, ratio of TD50 for neurotoxicity against ip dosed Kunming mouse assessed as time remained in rod measured at 0.5 hrs by rotarod test to ED50 for […] activity in ip dosed Kunming mouse assessed as reduction in formalin-induced paw licking administered 0.5 hrs before formalin stimulation; assay type: toxicity, organism-based; conditions: in vivo, read-out: PI
Homo sapiens [27] = species on record: Homo sapiens; assay: Inhibition of human LDH1 at 0.5 mM using sodium pyruvate as substrate by UV-VIS spectrophotometry method relative to control
Mus musculus [28] = assay: Anticonvulsant activity in Kunming mouse assessed as MES-induced hind limb extension at 50 mg/kg, ip administered 0.5 and 2 hrs before MES stimulation relative to control; assay type: functional
Mus musculus [29] = assay: Anticonvulsant activity in Kunming mouse assessed as MES-induced hind limb extension at 100 mg/kg, ip administered 0. 5 hrs before MES stimulation relative to control; assay type: functional
Mus musculus [30] = assay: Anticonvulsant activity in Kunming mouse assessed as reduction in ScPTZ-induced seizure at 100 mg/kg, ip administered 0.25 and 1 hrs before ScPTZ stimulation relative to control; assay type: functional; design: scale not given: the % may be the effect or the level left
Homo sapiens [31] = species on record: Homo sapiens; assay: Inhibition of human LDH5 at 0.5 mM using sodium pyruvate as substrate by UV-VIS spectrophotometry method relative to control
Mus musculus [32] = assay: Anticonvulsant activity in Kunming mouse assessed as reduction in Sc3-MP-induced seizure at 300 mg/kg, ip administered 0.25 and 1 hrs before Sc3-MP stimulation relative to control; assay type: functional, organism-based
Mus musculus [33] = assay: Anticonvulsant activity in Kunming mouse assessed as reduction in ScPTZ-induced mortality rate at 300 mg/kg, ip administered 0.5 hrs before ScPTZ stimulation relative to control; assay type: functional; design: scale not given: the % may be the effect or the level left
Mus musculus [34] = assay: Anticonvulsant activity in Kunming mouse assessed as reduction in Sc3-MP-induced seizure at 300 mg/kg, ip administered 0.5 hrs before Sc3-MP stimulation relative to control; assay type: functional; design: scale not given: the % may be the effect or the level left

Row | Structure (SMILES) | Activity (Mus musculus [1]) [%] | TD50 at 0.5 h [2] | Activity (Mus musculus [3]) | ED50 (Mus musculus [4]) | ED50 (Mus musculus [5]) | ED50 (Mus musculus [7]) | Activity (Mus musculus [11]) [%] | selectivity ratio at 0.5 h [13] | ED50 (Mus musculus [14]) | Activity (Mus musculus [15]) | Activity [16] | Activity (Mus musculus [17]) [%] | Activity (Mus musculus [18]) [%] | selectivity ratio at 0.5 h [19] | Activity (Mus musculus [20]) [%] | selectivity ratio at 0.5 h [21] | Activity (Mus musculus [22]) [%] | Activity (Mus musculus [23]) [%] | Activity (Mus musculus [25]) | selectivity ratio at 0.5 h [26] | also measured
1 | COc1cc(OC)c(/C=C/C(=O)OC/C=C/c2cc(OC)c(OC)cc2OC)c(OC)c1 | 50 | > 2250 µmol/kg and > 1000 mg/kg | 25 - 100% | 157 µmol/kg and 69.8 mg/kg | > 300 mg/kg and > 675 µmol/kg | 99 mg/kg and 223 µmol/kg | 75 | > 14.3 | 212 mg/kg and 476 µmol/kg | inactive | Non-Toxic | 100 | 0 | > 4.7 | 100 | 3.3 | 100 | 100 | Active | > 10.1 | Activity (Mus musculus [6]): Active; Activity (Mus musculus [8]): 100%; inhibition (Homo sapiens [9]): Active; Activity (Mus musculus [10]): 50%; Activity (Mus musculus [12]): 25%; inhibition (Homo sapiens [24]): Active
2 | COc1cc(OC)c(OC)cc1/C=C/COC(=O)/C=C/c1ccc(OC)c(OC)c1OC | 50 | > 1000 mg/kg and > 2250 µmol/kg | 25 - 100% | 33.4 mg/kg and 75.1 µmol/kg | > 300 mg/kg and > 675 µmol/kg | 78.4 mg/kg and 176 µmol/kg | 75 | > 29.9 | 203 mg/kg and 456 µmol/kg | inactive | Non-Toxic | 100 | 25 | > 4.9 | 100 | 3.3 | 100 | 100 | Active | > 12.8 | inhibition (Homo sapiens [27]): 7%; Activity (Mus musculus [28]): 50%; Activity (Mus musculus [10]): 50%; Activity (Mus musculus [29]): 100%; Activity (Mus musculus [30]): 75%; inhibition (Homo sapiens [31]): 8%
3 | COc1cc(OC)c(OC)cc1/C=C/COC(=O)/C=C/c1ccccc1Cl | 50 | > 2570 µmol/kg and > 1000 mg/kg | 25 - 100% | 151 µmol/kg and 58.7 mg/kg | 248 mg/kg and 639 µmol/kg | 101 mg/kg and 260 µmol/kg | 50 | > 17 | 150 mg/kg and 385 µmol/kg | inactive | Non-Toxic | 100 | 25 | > 6.7 | 100 | > 4 | 100 | 100 | Active | > 9.9 | inhibition (Homo sapiens [27]): < 5%; Activity (Mus musculus [28]): 75%; Activity (Mus musculus [32]): Active; Activity (Mus musculus [6]): Active; Activity (Mus musculus [10]): 50%; Activity (Mus musculus [12]): 0%; Activity (Mus musculus [30]): 75%; inhibition (Homo sapiens [31]): < 9%; Activity (Mus musculus [33]): 0%; Activity (Mus musculus [34]): 50%
4 | COc1cc(OC)c(OC)cc1/C=C/COC(=O)/C=C/c1cccc(Br)c1 | 50 | > 2310 µmol/kg and > 1000 mg/kg | 25 - 100% | 175 µmol/kg and 75.7 mg/kg | 215 mg/kg and 497 µmol/kg | 113 mg/kg and 260 µmol/kg | 50 | > 13.2 | > 200 mg/kg and > 462 µmol/kg | inactive | Non-Toxic | 100 | 25 | 5 | 100 | > 4.6 | 100 | 100 | Active | > 8.9 | inhibition (Homo sapiens [27]): < 5%; Activity (Mus musculus [28]): inactive; Activity (Mus musculus [32]): Active; Activity (Mus musculus [6]): Active; Activity (Mus musculus [12]): 0%; Activity (Mus musculus [30]): 75%; inhibition (Homo sapiens [31]): < 9%; Activity (Mus musculus [33]): 0%; Activity (Mus musculus [34]): 50%
